Measured values as given in patent publication US8445509B2, “Fused heterocyclic derivatives and use thereof” (Takeda Pharmaceutical Company Limited, priority 2008, dated 2013).

What was measured:
[1] = tested on: Human gastric cancer cell line MKN-45; experiment: Human gastric cancer cell line MKN-45 growth inhibitory test; type: cell-based; conditions: MKN-45, 72 h, culture for 3 days; for inhibition at 1 µM: 1 μM test substance, read-out: inhibitory rate (%) at 1 μM; for IC50: read-out: IC50 value
Protocol: Human gastric cancer cell line MKN-45 (RIKEN BioResource Center) was cultured in RPMI1640 (Invitrogen) containing 10% bovine fetal serum in a gas incubator at 37° C., 5% CO2. MKN-45 cells were treated with trypsin/EDTA and recovered. The cells were suspended in RPMI1640 containing 0.3% bovine fetal serum, plated on a 96 well flat bottom plate at a cells density of 3000 cells/50 μL per well. After culturing overnight, various concentrations of test substance were dissolved in RPMI1640 containing 0.3% bovine fetal serum and added to each well by 50 μL. After culture for 3 days, a Cell counting kit-8 reagent (DOJINDO LABORATORIES) was added to each well by 10 μL, and reacted in an incubator at 37° C., 5% CO2 for 2-3 hr. After the reaction, the absorbance of each well at 450 nm was measured by a microtiter plate reader. The concentration of a test substance necessary for inhibiting the growth by 50% (IC50 value) was calculated using a cell proliferation rate with addition of the test substance at each concentration and according to the nonlinear regression analysis using GraphPad Prism [Sigmoidal dose response (variable slope)]. The cell proliferation rate (%) with addition of a test substance at each concentration was calculated by the following formula. As a positive control (100% growth), dimethyl sulfoxide was added instead of a test substance. As a negative control (0% growth), the compound of Reference Example 136 (WO2005/030140, Entry 104), which is a known c-Met inhibitor, was added in large excess (10 μM) instead of a test substance.

[2] = target: T1, VEGFR2 intracellular domain protein (Homo sapiens, UniProt P35968); experiment: Vascular endothelial growth factor receptor 2 (VEGFR2) kinase inhibitory activity (AlphaScreen); type: biochemical
T1 construct: made in house; host or cells: SF-21 insect cells, recombinant baculovirus BAC-VEGFR2
T1 sequence (P35968 786-1356 limits assumed): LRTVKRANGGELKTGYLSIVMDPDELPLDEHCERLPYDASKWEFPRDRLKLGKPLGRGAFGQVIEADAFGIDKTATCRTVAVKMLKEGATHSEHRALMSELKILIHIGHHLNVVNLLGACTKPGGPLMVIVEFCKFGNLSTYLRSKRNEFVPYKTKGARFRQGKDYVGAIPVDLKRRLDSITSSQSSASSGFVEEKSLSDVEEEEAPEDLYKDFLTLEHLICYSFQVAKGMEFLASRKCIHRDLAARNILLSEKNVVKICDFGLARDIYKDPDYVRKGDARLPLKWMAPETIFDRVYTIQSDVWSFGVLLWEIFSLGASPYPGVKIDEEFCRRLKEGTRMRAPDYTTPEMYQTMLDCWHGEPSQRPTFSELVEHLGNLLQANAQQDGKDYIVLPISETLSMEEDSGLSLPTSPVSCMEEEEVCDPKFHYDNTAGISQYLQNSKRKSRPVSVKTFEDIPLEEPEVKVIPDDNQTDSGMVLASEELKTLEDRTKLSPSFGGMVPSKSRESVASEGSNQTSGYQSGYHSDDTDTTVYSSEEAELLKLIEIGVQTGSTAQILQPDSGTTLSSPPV
Protocol: Human vascular endothelial growth factor receptor 2 (hereinafter to be referred to as VEGFR2) gene was cloned by PCR using cDNA Libraries Human Placenta (Clontech) as a template. […] The primer base sequence is shown below.
SF-21 cells were sown at 1×10^6 cells/mL to Sf-900II SFM medium (1 L, Invitrogen) containing 10% fetal bovine serum (trace), 50 mg/L Gentamicin (Invitrogen) and 0.1% Pluronic F-68 (Invitrogen), and shaking culture was performed using a 2 L volume Erlenmeyer flask at 27° C., 100 rpm. After culturing for 24 hrs, recombinant baculovirus BAC-VEGFR2 (13.4 mL) was added to the mixture, and the mixture was further cultured for 3 days. The culture medium was centrifuged at 2,000 rpm for 5 min to give virus-infected cells. The infected cells were washed with a phosphate buffered saline (Invitrogen), centrifuged under the same conditions, and the cells were preserved at −80° C. The cryopreserved cells were thawed in ice, suspended in buffer A (50 mM Tris buffer (30 mL, pH 7.4) containing 20% glycerol, 0.15 M NaCl) supplemented with Complete Protease Inhibitor (Boehringer), and ruptured 3 times with a Polytron homogenizer (Kinematica) at 20,000 rpm for 30 sec. The ruptured medium was clarified by centrifugation at 40,000 rpm for 30 min and filtered with a 0.45 μm filter. The filtrate was passed through a column packed with Anti-FLAG M2 Affinity Gel (4 mL, Sigma) at a flow rate of about 0.5 mL/min. The column was washed with buffer A, and eluted with buffer A containing 100 μg/mL of FLAG peptide. The eluate was concentrated with Vivaspin 20 (Vivascience) having a molecular weight cut off of 30K. The buffer of this concentrate was exchanged using NAP™ 25 column (Amersham Bioscience) equilibrated with buffer A. The fractions containing intracellular domain protein of VEGFR2 were collected, glycerol was added to the final concentration of 50% and cryopreserved at −80° C.
(§1) A test compound dissolved in dimethyl sulfoxide (DMSO) was diluted with a buffer (50 mM Tris-HCl (pH 7.5), 5 mM MgCl2, 5 mM MnCl2, 2 mM dithiothreitol, 0.01% Tween-20). To this compound solution (5 μL) was added a buffer (10 μL) containing 50 ng/mL of VEGFR2 intracellular domain protein and 250 ng/mL of biotin labeled polypeptide biotinyl-poly-Glu:Tyr (4:1) (CIS bio International). […] The reaction solution was allowed to stand at 25° C. for 16 hrs, and the wells were counted using a plate reader (Fusion™ (PerkinElmer)). The kinase inhibitory rate (%) of the test compound was calculated by the following formula: Inhibitory rate (%)=(1−(count of test compound−blank)÷(control−blank))×100
(§2) The count of the solution reacted without addition of the compound was used as a “control”, and the count of the solution without the compound and ATP was used as a “blank”.

[3] = target: T2, c-Met intracellular domain protein (Homo sapiens, UniProt P08581); experiment: Hepatocyte growth factor receptor (c-Met) kinase inhibitory activity (AlphaScreen); type: biochemical; conditions: for inhibition at 1 µM: 1 μM test compound, read-out: inhibitory rate (%) at 1 μM
T2 construct: 2.5 ng/ml of c-Met intracellular domain protein (Millipore); purchased Millipore
T2 sequence (P08581 956-1390 limits assumed): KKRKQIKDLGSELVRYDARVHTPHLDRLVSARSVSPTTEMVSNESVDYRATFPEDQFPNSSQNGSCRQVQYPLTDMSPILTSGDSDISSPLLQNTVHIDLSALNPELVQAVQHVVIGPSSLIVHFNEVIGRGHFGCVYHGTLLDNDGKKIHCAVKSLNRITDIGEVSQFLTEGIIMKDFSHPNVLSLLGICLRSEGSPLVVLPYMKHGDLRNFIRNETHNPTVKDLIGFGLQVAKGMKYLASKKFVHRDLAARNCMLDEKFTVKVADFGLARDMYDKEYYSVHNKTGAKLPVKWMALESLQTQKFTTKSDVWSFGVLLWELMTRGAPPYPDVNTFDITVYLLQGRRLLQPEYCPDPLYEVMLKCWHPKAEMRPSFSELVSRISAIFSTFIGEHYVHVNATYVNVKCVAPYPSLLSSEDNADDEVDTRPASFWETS
Protocol: as §1, with “containing 2.5 ng/ml” for “containing 50 ng/mL”, “of c-Met” for “of VEGFR2”, “protein (Millipore)” for “protein”
as §2

| SMILES | IC50 [1] | IC50 [2] | IC50 [3] | inhibition at 1 µM [3] | inhibition at 1 µM [1] |
| --- | --- | --- | --- | --- | --- |
| Cc1ccc(C(=O)Nc2ccc(Oc3ccc4nc(NC(=O)C5CC5)cn4c3)c(F)c2)c(=O)n1-c1ccc(F)c(F)c1 [Example 45, N-[4-({2-[(cyclopropylcarbonyl)amino]imidazo[1,2-a]pyridin-6-yl}oxy)-3-fluorophenyl]-1-(3,4-difluorophenyl)-6-methyl-2-oxo-1,2-dihydropyridine-3-carboxamide] | ≤ 1 µM | ≤ 1 µM | ≤ 1 µM | ≥ 80% | ≥ 80% |
| Cc1c(C(=O)Nc2ccc(Oc3ccc4nc(NC(=O)C5CC5)cn4c3)c(F)c2)c(=O)n(-c2ccccc2)n1C [Example 46, N-[4-({2-[(cyclopropylcarbonyl)amino]imidazo[1,2-a]pyridin-6-yl}oxy)-3-fluorophenyl]-1,5-dimethyl-3-oxo-2-phenyl-2,3-dihydro-1H-pyrazole-4-carboxamide] | ≤ 1 µM | ≤ 1 µM | ≤ 1 µM | ≥ 80% | ≥ 80% |
| O=C(Nc1cn2cc(Oc3ccc(NC(=O)N4CCN(c5ccc(F)cc5)C4=O)cc3F)ccc2n1)C1CC1 [Example 53, N-[4-({2-[(cyclopropylcarbonyl)amino]imidazo[1,2-a]pyridin-6-yl}oxy)-3-sfluorophenyl]-3-(4-fluorophenyl)-2-oxoimidazolidine-1-carboxamide] | ≤ 1 µM | ≤ 1 µM | ≤ 1 µM | ≥ 80% | ≥ 80% |
| Cc1ccc(C(=O)Nc2ccc(Oc3ccc4nc(NC(=O)C5CC5)cn4c3)c(Cl)c2)c(=O)n1-c1ccc(F)cc1 [Example 57, N-[3-chloro-4-({2-[(cyclopropylcarbonyl)amino]imidazo[1,2-a]pyridin-6-yl}oxy)phenyl]-1-(4-fluorophenyl)-6-methyl-2-oxo-1,2-dihydropyridine-3-carboxamide] | ≤ 1 µM | ≤ 1 µM | ≤ 1 µM | ≥ 80% | ≥ 80% |
| Cc1ccc(C(=O)Nc2ccc(Oc3ccc4nc(NC(=O)C5CC5)cn4c3)cn2)c(=O)n1-c1ccc(F)cc1 [Example 60, N-[5-({2-[(cyclopropylcarbonyl)amino]imidazo[1,2-a]pyridin-6-yl}oxy)pyridin-2-yl]-1-(4-fluorophenyl)-6-methyl-2-oxo-1,2-dihydropyridine-3-carboxamide] | ≤ 1 µM | ≤ 1 µM | ≤ 1 µM | ≥ 80% | ≥ 80% |
| Cc1ccc(C(=O)Nc2ccc(Oc3ccc4nc(NC(=O)C5CC5)cn4c3)cn2)[n+]([O-])c1-c1ccc(F)cc1 [Example 61, N-[5-({2-[(cyclopropylcarbonyl)amino]imidazo[1,2-a]pyridin-6-yl}oxy)pyridin-2-yl]-6-(4-fluorophenyl)-5-methylpyridine-2-carboxamide 1-oxide] | ≤ 1 µM | ≤ 1 µM | ≤ 1 µM | ≥ 80% | ≥ 80% |

Second part, led by results:

| IC50 [1] | IC50 [2] | IC50 [3] | inhibition at 1 µM [3] | SMILES | inhibition at 1 µM [1] |
| --- | --- | --- | --- | --- | --- |
| ≤ 1 µM | ≤ 1 µM | ≤ 1 µM | ≥ 80% | O=C(Nc1ccc(Oc2ccc3nc(NC(=O)C4CC4)cn3c2)c(F)c1)c1cccn(-c2ccc(F)cc2)c1=O [Example 10, N-[4-({2-[(cyclopropylcarbonyl)amino]imidazo[1,2-a]pyridin-6-yl}oxy)-3-fluorophenyl]-1-(4-fluorophenyl)-2-oxo-1,2-dihydropyridine-3-carboxamide] | ≥ 80% |
| ≤ 1 µM | ≤ 1 µM | ≤ 1 µM | ≥ 80% | O=C(Nc1cn2cc(Oc3ccc(NC(=O)C4(C(=O)Nc5ccc(F)cc5)CC4)cc3F)ccc2n1)C1CC1 [Example 11, N-[4-({2-[(cyclopropylcarbonyl)amino]imidazo[1,2-a]pyridin-6-yl}oxy)-3-fluorophenyl]-N′-(4-fluorophenyl)cyclopropane-1,1-dicarboxamide] | ≥ 80% |
| ≤ 1 µM | ≤ 1 µM | ≤ 1 µM | ≥ 80% | O=C(Nc1cn2cc(Oc3ccc(NC(=O)C4(C(=O)Nc5ccccc5)CC4)cc3F)ccc2n1)C1CC1 [Example 14, N-[4-({2-[(cyclopropylcarbonyl)amino]imidazo[1,2-a]pyridin-6-yl}oxy)-3-fluorophenyl]-N′-phenylcyclopropane-1,1-dicarboxamide] | ≥ 80% |
| ≤ 1 µM | ≤ 1 µM | ≤ 1 µM | ≥ 80% | O=C(Nc1nc2ccc(Oc3ccc(NC(=O)C4(C(=O)Nc5ccccc5)CC4)cc3F)cc2s1)C1CC1 [Example 18, N-[4-({2-[(cyclopropylcarbonyl)amino]-1,3-benzothiazol-6-yl}oxy)-3-fluorophenyl]-N′-phenylcyclopropane-1,1-dicarboxamide] | ≥ 80% |
| ≤ 1 µM | ≤ 1 µM | ≤ 1 µM | ≥ 80% | Cc1ccc(C(=O)Nc2ccc(Oc3ccc4nc(NC(=O)C5CC5)cn4c3)cc2)c(=O)n1-c1ccc(F)cc1 [Example 28, N-[4-({2-[(cyclopropylcarbonyl)amino]imidazo[1,2-a]pyridin-6-yl}oxy)phenyl]-1-(4-fluorophenyl)-6-methyl-2-oxo-1,2-dihydropyridine-3-carboxamide] | ≥ 80% |
| ≤ 1 µM | ≤ 1 µM | ≤ 1 µM | ≥ 80% | Cc1ccc(C(=O)Nc2ccc(Oc3ccc4nc(NC(=O)C5CC5)cn4c3)c(F)c2)[n+]([O-])c1-c1ccc(F)cc1 [Example 29, N-[4-({2-[(cyclopropylcarbonyl)amino]imidazo[1,2-a]pyridin-6-yl}oxy)-3-fluorophenyl]-6-(4-fluorophenyl)-5-methylpyridine-2-carboxamide 1-oxide] | ≥ 80% |
| ≤ 1 µM | ≤ 1 µM | ≤ 1 µM | ≥ 80% | Cc1ccc(C(=O)Nc2ccc(Oc3ccc4nc(NC(=O)C5CC5)cn4c3)c(F)c2)c(=O)n1-c1ccc(F)cc1.Cl [Example 32, N-[4-({2-[(cyclopropylcarbonyl)amino]imidazo[1,2-a]pyridin-6-yl}oxy)-3-fluorophenyl]-1-(4-fluorophenyl)-6-methyl-2-oxo-1,2-dihydropyridine-3-carboxamide hydrochloride] | ≥ 80% |
